Source: US9586978B2, “Anti-viral compounds” (AbbVie Inc., priority 2009, dated 2017)
Like-named read-outs stand apart in the source and are kept apart here.

Tests used:
[1] = test system: HCV genotype 1a replicon; assay: HCV genotype 1a replicon assay; assay type: cell-based, Hepatitis C virus; conditions: Hepatitis C virus
Source text: (§1) [drawing 14] employs a biphenyl linker between the imidazole moieties. See WO2008021927(BMS). The EC50 values of BMS-790052 against different HCV genotypes were shown by Nettles et al., “BMS-790052 is a First-in-class Potent Hepatitis C Virus (HCV) NS5A Inhibitor for Patients with Chronic HCV Infection: Results from a Proof-of-concept Study”, 59th Annual Meeting of the American Association for the Study of Liver Diseases (Oct. 31-Nov. 1, 2008, San Francisco, Calif.; www.natap.org/2008/AASLD/AASLD_06.htm). […] See also Gao et al., NATURE 465:96-100 (2010). The compounds in Table 1 use different linkers between the imidazole moieties. Table 1 depicts the EC50 values of these compounds when tested using respective replicon assays in the presence of 5% (v/v) fetal bovine serum (FBS).
(§2) Table 2 compares compounds containing unsubstituted benzimidazole to those containing halo-substituted benzimidazole. Anti-viral activities were assessed using wild-type replicons (e.g., 1b WT or 1a WT) as well as replicons containing specific NS5A mutations (e.g., 1b L28T, 1b Y93H, 1a L31V, 1a Y93C, 1a M28V, or 1a Q30E) in the absence of FBS.
(§3) Table 3 compares compounds with different linkers between the benzimidazole moieties. Anti-viral activities were determined using 1a and 1b replicon assays. “HP” refers to human plasma. […] As compared to the phenyl linker

[2] = test system: HCV genotype 1b replicon; assay: HCV genotype 1b replicon assay; assay type: cell-based, Hepatitis C virus; conditions: Hepatitis C virus
Source text: as §1, §2, §3

[3] = test system: HCV 1b replicon containing NS5A mutation L28T; assay: HCV 1b L28T replicon assay; assay type: cell-based; conditions: Hepatitis C virus, read-out: EC50 (nM) 1b L28T
Procedure: as §2

[4] = test system: HCV 1b replicon containing NS5A mutation Y93H; assay: HCV 1b Y93H replicon assay; assay type: cell-based, Hepatitis C virus; conditions: Hepatitis C virus, read-out: EC50 (nM) 1b Y93H
Procedure: as §2

[5] = test system: HCV 1a replicon containing NS5A mutation L31V; assay: HCV 1a L31V replicon assay; assay type: cell-based, Hepatitis C virus; conditions: for EC50: Hepatitis C virus, read-out: EC50 (nM) 1a L31V
Procedure: as §2

[6] = test system: HCV 1a replicon containing NS5A mutation Y93C; assay: HCV 1a Y93C replicon assay; assay type: cell-based; conditions: Hepatitis C virus, read-out: EC50 (nM) 1a Y93C
Procedure: as §2

[7] = test system: HCV 1a replicon containing NS5A mutation M28V; assay: HCV 1a M28V replicon assay; assay type: cell-based; conditions: Hepatitis C virus, read-out: EC50 (nM) 1a M28V
Procedure: as §2

[8] = test system: HCV 1a replicon containing NS5A mutation Q30E; assay: HCV 1a Q30E replicon assay; assay type: cell-based; conditions: Hepatitis C virus, read-out: EC50 (nM) 1a Q30E
Procedure: as §2

[9] = test system: HCV genotype 2a replicon; assay: HCV genotype 2a replicon assay; assay type: cell-based, Hepatitis C virus; conditions: Hepatitis C virus, absence of human plasma; Table 5; read-out: EC50 (nM, in the absence of HP) 2a
Source text: as §1

[10] = test system: HCV genotype 2b replicon; assay: HCV genotype 2b replicon assay; assay type: cell-based, Hepatitis C virus; conditions: Hepatitis C virus, absence of human plasma; Table 5; read-out: EC50 (nM, in the absence of HP) 2b
Source text: as §1

[11] = test system: HCV genotype 3a replicon; assay: HCV genotype 3a replicon assay; assay type: cell-based, Hepatitis C virus; conditions: Hepatitis C virus, read-out: EC50 (nM, in the absence of HP) 3a, absence of human plasma; Table 5
Source text: as §1

[12] = test system: HCV genotype 4a replicon; assay: HCV genotype 4a replicon assay; assay type: cell-based, Hepatitis C virus; conditions: Hepatitis C virus, absence of human plasma; Table 5; read-out: EC50 (nM, in the absence of HP) 4a
Source text: as §1

[13] = test system: HCV 2a, 2b, 3a and 4a replicon; assay: HCV 2a, 2b, 3a and 4a replicon assays in the absence of human plasma; assay type: cell-based; conditions: Hepatitis C virus, 3a and 4a replicons, absence of human plasma
Procedure: The inhibitory effects of the compounds of the invention on HCV replication can be determined by measuring activity of the luciferase reporter gene. For example, replicon-containing cells can be seeded into 96 well plates at a density of 5000 cells per well in 100 μl DMEM containing 5% FBS. The following day compounds can be diluted in dimethyl sulfoxide (DMSO) to generate a 200× stock in a series of eight half-log dilutions. The dilution series can then be further diluted 100-fold in the medium containing 5% FBS. Medium with the inhibitor is added to the overnight cell culture plates already containing 100 μl of DMEM with 5% FBS. In assays measuring inhibitory activity in the presence of human plasma, the medium from the overnight cell culture plates can be replaced with DMEM containing 40% human plasma and 5% FBS. The cells can be incubated for three days in the tissue culture incubators after which time 30 μl of Passive Lysis buffer (Promega) can be added to each well, and then the plates are incubated for 15 minutes with rocking to lyse the cells. Luciferin solution (100 μl, Promega) can be added to each well, and luciferase activity can be measured with a Victor II luminometer (Perkin-Elmer). The percent inhibition of HCV RNA replication can be calculated for each compound concentration and the EC50 value can be calculated using nonlinear regression curve fitting to the 4-parameter logistic equation and GraphPad Prism 4 software.

[14] = test system: HCV 1b-Con1 replicon; assay: HCV 1b-Con1 replicon assay in the presence of 5% FBS (luciferase reporter); assay type: cell-based; conditions: Hepatitis C virus
[15] = wild-type replicon, in the absence of FBS, read-out: EC50 (nM) 1a WT
[16] = wild-type replicon, in the absence of FBS, read-out: EC50 (nM) 1b WT

SMILES: COC(=O)NC(C(=O)N1CCCC1c1nc2cc(-c3ccc(-c4ccc5[nH]c([C@@H]6CCCN6C(=O)[C@@H](NC(=O)OC)C(C)C)nc5c4)cc3)ccc2[nH]1)C(C)C (some centres unmarked)
- EC50 [1, 15]: 0.09 nM
- EC50 [2, 16]: 0.01 nM
- EC50 [3]: 2.7 nM
- EC50 [4]: 0.9 nM
- EC50 [5]: 36 nM
- EC50 [6]: 40 nM
- EC50 [7]: 1 nM
- EC50 [8]: 40 nM

SMILES: COC(=O)N[C@H](C(=O)N1CCCC1c1nc2c(F)cc(-c3ccc(-c4cc(F)c5nc([C@@H]6CCCN6C(=O)[C@@H](NC(=O)OC)C(C)C)[nH]c5c4)cc3)cc2[nH]1)C(C)C (some centres unmarked)
- activity against HCV variants containing NS5A mutations (e.g., 1a L31V) ([5]; compared with unsubstituted benzimidazole reference compound of Table 2): better activity

SMILES: COC(=O)N[C@H](C(=O)N1CCC[C@H]1c1nc2cc([C@H]3CC[C@H](c4ccc5[nH]c([C@@H]6CCCN6C(=O)[C@@H](NC(=O)OC)C(C)C)nc5c4)N3c3ccc(N4CCC(c5ccccc5)CC4)cc3)ccc2[nH]1)C(C)C [Example 4.25]
- EC50 ([1]; 40% human plasma, Table 5, read-out: EC50 (nM, in the presence of 40% HP) 1a): 1.5 nM
- EC50 ([2]; 40% human plasma, Table 5, read-out: EC50 (nM, in the presence of 40% HP) 1b): 1.5 nM
- EC50 [9]: 0.5 nM
- EC50 [10]: 0.5 nM
- EC50 [11]: 0.5 nM
- EC50 [12]: 0.2 nM
- EC50 [13]: 0.2 to 0.5 nM

SMILES: COC(=O)N[C@H](C(=O)N1CCC[C@H]1c1nc2ccc(-c3ccc(-c4ccc5nc([C@@H]6CCCN6C(=O)[C@@H](NC(=O)OC)C(C)C)[nH]c5c4F)cc3)c(F)c2[nH]1)C(C)C
- EC50 [1, 15]: 0.1 nM
- EC50 [2, 16]: 0.007 nM
- EC50 [3]: > 10 nM
- EC50 [4]: 3.6 nM
- EC50 [5]: 80 nM
- EC50 [6]: 141 nM
- EC50 [7]: 5.8 nM
- EC50 [8]: 52 nM

SMILES: COC(=O)N[C@H](C(=O)N1CCC[C@H]1c1nc2cc(F)c(-c3ccc(-c4c(F)cc5nc([C@@H]6CCCN6C(=O)[C@@H](NC(=O)OC)C(C)C)[nH]c5c4F)cc3)c(F)c2[nH]1)C(C)C
- EC50 [1, 15]: 0.28 nM
- EC50 [2, 16]: 0.005 nM
- EC50 [3]: > 10 nM
- EC50 [4]: 5.7 nM
- EC50 [5]: 33 nM
- EC50 [6]: 103 nM
- EC50 [7]: 11.6 nM
- EC50 [8]: 306 nM

SMILES: CC(C)(C)OC(=O)NCC(=O)N1CCC[C@H]1c1nc2cc([C@@H]3CC[C@@H](c4ccc5[nH]c([C@@H]6CCCN6C(=O)CNC(=O)OC(C)(C)C)nc5c4)N3c3ccc(N4CCCCC4)c(F)c3)ccc2[nH]1 [Example 3.14, tert-butyl {2-[(2S)-2-(5-{(2S,5S)-5-{2-[(2S)-1-{[(tert-butoxycarbonyl)amino]acetyl}pyrrolidin-2-yl]-1H-benzimidazol-5-yl}-1-[3-fluoro-4-(piperidin-1-yl)phenyl]pyrrolidin-2-yl}-1H-benzimidazol-2-yl)pyrrolidin-1-yl]-2-oxoethyl}carbamate]
- EC50 [14]: > 10000 nM

SMILES: COC(=O)N[C@H](C(=O)N1CCC[C@H]1c1nc2cc([C@H]3CC[C@H](c4ccc5[nH]c([C@@H]6CCCN6C(=O)[C@@H](NC(=O)OC)C(C)C)nc5c4)N3c3ccc(N4CCCCC4=O)cc3)ccc2[nH]1)C(C)C [Example 1.2]
- EC50 [14]: > 10000 nM

SMILES: COC(=O)N[C@H](C(=O)N1CCC[C@H]1c1nc2cc(F)c(-c3ccc(-c4cc5[nH]c([C@@H]6CCCN6C(=O)[C@@H](NC(=O)OC)C(C)C)nc5cc4F)cc3)cc2[nH]1)C(C)C
- EC50 [1, 15]: 0.14 nM
- EC50 [2, 16]: 0.003 nM
- EC50 [3]: 1.8 nM
- EC50 [4]: 0.5 nM
- EC50 [5]: 109 nM
- EC50 [6]: 26 nM
- EC50 [7]: 2.4 nM
- EC50 [8]: 119 nM

SMILES: COC(=O)N[C@H](C(=O)N1CCC[C@H]1c1nc2c(F)cc(-c3ccc(-c4cc(F)c5nc([C@@H]6CCCN6C(=O)[C@@H](NC(=O)OC)C(C)C)[nH]c5c4)cc3)cc2[nH]1)C(C)C
- EC50 [1, 15]: 0.26 nM
- EC50 [2, 16]: 0.004 nM
- EC50 [3]: 4.3 nM
- EC50 [4]: 2.4 nM
- EC50 [5]: 5.5 nM
- EC50 [6]: 34 nM
- EC50 [7]: 1.8 nM
- EC50 [8]: 59 nM

SMILES: COC(=O)N[C@H](C(=O)N1CCC[C@H]1c1nc2cc(C3CC[C@H](c4ccc5[nH]c([C@@H]6CCCN6C(=O)[C@@H](NC(=O)OC)C6CCOCC6)nc5c4)N3c3cc(F)c(N4CCCCC4)c(F)c3)ccc2[nH]1)C1CCOCC1 (stereo in doubt) [Example 3.18, dimethyl({(2R,5R)-1-[3,5-difluoro-4-(piperidin-1-yl)phenyl]pyrrolidine-2,5-diyl}bis{1H-benzimidazole-5,2-diyl(2S)pyrrolidine-2,1-diyl[(1S)-2-oxo-1-(tetrahydro-2H-pyran-4-yl)ethane-2,1-diyl]})biscarbamate]
- EC50 [14]: < 0.1 nM

SMILES: COC(=O)N[C@H](C(=O)N1CCC[C@H]1c1nc2cc(C3CC[C@H](c4cc5nc([C@@H]6CCCN6C(=O)[C@@H](NC(=O)OC)C(C)C)[nH]c5cc4F)N3c3cc(F)c(N4CC(C)CC(C)C4)c(F)c3)c(F)cc2[nH]1)C(C)C (stereo partly drawn) [Example 2.16, methyl{(2S)-1-[(2S)-2-{5-[(5R)-1-[4-(3,5-dimethylpiperidin-1-yl)-3,5-difluorophenyl]-5-{6-fluoro-2-[(2S)-1-{(2S)-2-[(methoxycarbonyl)amino]-3-methylbutanoyl}pyrrolidin-2-yl]-1H-benzimidazol-5-yl}pyrrolidin-2-yl]-6-fluoro-1H-benzimidazol-2-yl}pyrrolidin-1-yl]-3-methyl-1-oxobutan-2-yl}carbamate]
- EC50 [14]: < 0.1 nM

SMILES: COC(=O)N[C@H](C(=O)N1C(c2nc3cc([C@H]4CC[C@H](c5ccc6[nH]c([C@@H]7C[C@@H]8CCC[C@@H]8N7C(=O)[C@@H](NC(=O)OC)C(C)C)nc6c5)N4c4ccc(C(C)(C)C)cc4)ccc3[nH]2)C[C@@H]2CCC[C@@H]21)C(C)C (stereo partly drawn) [Example 4.19, methyl{(2S)-1-[(2S,3aS,6aS)-2-{5-[(2R,5R)-1-(4-tert-butylphenyl)-5-{2-[(3aS,6aS)-1-{(2S)-2-[(methoxycarbonyl)amino]-3-methylbutanoyl}octahydrocyclopenta[b]pyrrol-2-yl]-1H-benzimidazol-5-yl}pyrrolidin-2-yl]-1H-benzimidazol-2-yl}hexahydrocyclopenta[b]pyrrol-1(2H)-yl]-3-methyl-1-oxobutan-2-yl}carbamate]
- EC50 [14]: < 0.1 nM
